# Publication PMC8318231, “Rate-of-Kill (RoK) assays to triage large compound sets for Chagas disease drug discovery: Application to GSK Chagas Box” (PLoS Neglected Tropical Diseases, 2021)
# Tests used:
# TcCYP51 = settings: formerly reported; cited from earlier work
# [1] = tested on: T. cruzi Tulahuen trypomastigotes; test: T. cruzi trypomastigote assay (Cell Titer-Glo viability, ATP luminescence); type: cell-based, Trypanosoma cruzi; settings: for Trypomastigotes pIC50 48 hours: 48 hours incubation; for Trypomastigotes pIC50 48 hours / Trypomastigotes pIC50 72 hours: pIC50 = -log10 IC50 in molar units; for Trypomastigotes pIC50 72 hours: 72 hours incubation; for 48 pIC50 / 72 pIC50: trypomastigote assay; for 48 pIC50: 48 h; for 72 pIC50: 72 h
# Experimental: T. cruzi Tulahuen trypomastigotes obtained from the supernatants of LLC-MK2 infected cultures in a 225 cm^2 T-Flasks harvested between days 5 and 8 of infection. Trypomastigotes (5 × 10^4 per well) in 50 μl of DMEM/ 2% FBS were dispensed into white 384 plates (Greiner) pre-stamped with 250 nl compound a single-shot final concentration of 5 μM, or in dose response. […] Cell Titer-Glo cell viability solution (Promega) was added to each well (50 μL) incubated at room temperature for 10 min and luminescence read by Envision plate reader (Perkin Elmer). This assay quantifies the amount of ATP present which is directly proportional to the number of metabolically active cells. All data were normalised (100% effect control for no cells and 0% effect control for DMSO). This assay was adapted from MacLean et al., 2018 [22].
SMILES,CYP51 pIC50 (TcCYP51),Trypomastigotes pIC50 48 hours [1],Trypomastigotes pIC50 72 hours [1],48 pIC50 ([1]; figure 1A),72 pIC50 ([1]; figure 1A),72 pIC50 ([1]; figure 1B)
CC1(C)CCC(=Cc2ccc(Cl)cc2)CC1(O)Cn1ccnc1 (centres unmarked) [TCMDC-125222],7.3,5.1,4.8,,,
Nc1ncnc2c1ncn2[C@@H]1O[C@H](CO)C[C@H]1O [TCMDC-143080],< 4,< 4.3,6,,,
O=C1CCCCCC1(Cc1cnc[nH]1)c1ccc(Cl)cc1Cl (centres unmarked) [TCMDC-143081],7,< 4.3,< 4.3,< 4.3,< 4.3,< 4.3
Cl.Clc1ccc(C(CC2CCCCO2)Cn2cncn2)c(Cl)c1 (centres unmarked) [TCMDC-143082],6.6,< 4.3,< 4.3,< 4.3,< 4.3,< 4.3
Cn1nc([N+](=O)[O-])nc1N1CCCCC1 [TCMDC-143088],< 4,< 4.3,< 4.3,< 4.3,< 4.3,< 4.3
O=C(NCc1ccc(-n2cccc2)cc1)c1nc(Cn2ccc([N+](=O)[O-])n2)no1 [TCMDC-143103],< 4,6,5.9,,,
COc1cccc(-c2cc(C(F)(F)F)nc(-n3ccc([N+](=O)[O-])n3)n2)c1 [TCMDC-143105],< 4,5.8,6,,,
CN(C)CCN(C)Cc1ccc(F)cc1NS(=O)(=O)c1ccc(Cl)c(Cl)c1 [TCMDC-143118],< 4,5.9,5.9,5.9,5.9,5.9
N#Cc1nc(C=Cc2ccccc2)oc1NCc1cccnc1 [TCMDC-143120],,4.5,< 4.3,,,
Cn1nc([N+](=O)[O-])nc1Oc1ccc(C(=O)c2ccccc2)cc1 [TCMDC-143126],< 4,6,6.1,,,
O=S(=O)(NCC(c1cccnc1)N1CCN(c2ccccc2F)CC1)c1ccc(F)cc1 (centres unmarked) [TCMDC-143142],7.1,< 4.3,< 4.3,< 4.3,< 4.3,< 4.3
N#Cc1cc([N+](=O)[O-])ccc1NC1CCCCCC1 [TCMDC-143143],< 4,< 4.3,< 4.3,< 4.3,< 4.3,< 4.3
C=CCOCC1Cn2nc([N+](=O)[O-])nc2O1 (centres unmarked) [TCMDC-143149],< 4,< 4.3,< 4.3,< 4.3,< 4.3,< 4.3
Cc1ccc(NC(=O)c2ccc(Cl)c(NC(=O)c3ccc([N+](=O)[O-])cc3)c2)cc1 [TCMDC-143150],< 4,5.8,5.6,,,
C=CCn1nc([N+](=O)[O-])nc1Oc1ccc(Cl)cc1Cl [TCMDC-143151],4.7,6.1,6.3,,,
Cc1c(CNC(=O)c2ccc(Cn3cc(Cl)c([N+](=O)[O-])n3)cc2)cnn1C [TCMDC-143153],< 4,4.7,5.3,,,
Cc1c([N+](=O)[O-])c(C(=O)Nc2sc3c(c2C#N)CCC(C)C3)nn1C (centres unmarked) [TCMDC-143155],< 4,5.3,5.3,5.3,5.3,5.3

SMILES,CYP51 pIC50 (TcCYP51),Trypomastigotes pIC50 48 hours [1],Trypomastigotes pIC50 72 hours [1],48 pIC50 ([1]; figure 1A),72 pIC50 ([1]; figure 1A),72 pIC50 ([1]; figure 1B)
O=C(Nc1ccc(Br)cn1)c1ccc(Cn2cnc([N+](=O)[O-])n2)cc1 [TCMDC-143156],< 4,6.1,6.1,6.1,6.1,6.1
CC1=NN(C(=O)CCn2cnc([N+](=O)[O-])n2)C(O)(C(F)(F)F)C1 (centres unmarked) [TCMDC-143157],< 4,< 4.3,< 4.3,< 4.3,< 4.3,< 4.3
O=C(c1cc2cc(Cl)ccc2[nH]1)N1CCCCC1c1cccnc1 (centres unmarked) [TCMDC-143159],7.2,4.5,4.4,,,
O=S(=O)(c1ccccc1C(F)(F)F)N1CCN(Cc2ccc(-n3ccnc3)cc2)CC1 [TCMDC-143161],7,< 4.3,< 4.3,< 4.3,< 4.3,< 4.3
CC1(Oc2cncc(Cl)c2)CCN(Cc2cc3ccccc3[nH]2)C1 (centres unmarked) [TCMDC-143162],5,5.6,6.1,,,
CC(=O)Nc1ccc(-c2csc(NC(=O)c3ccc([N+](=O)[O-])s3)n2)cc1 [TCMDC-143164],5.2,6.4,6.6,,,
N#Cc1cccc(CN2CCC(N(Cc3cccnc3)C(=O)c3cc(F)c(F)cc3F)CC2)c1 [TCMDC-143178],7.3,< 4.3,< 4.3,< 4.3,< 4.3,< 4.3
N#Cc1cccc(CN2CCC(c3nc(-c4ccc(C(F)(F)F)nc4)no3)CC2)c1 [TCMDC-143179],< 4,< 4.3,< 4.3,< 4.3,< 4.3,< 4.3
COc1ccc(-c2nc3ccncc3c(=O)n2CCOc2ccccc2)cc1 [TCMDC-143182],7.4,< 4.3,< 4.3,< 4.3,< 4.3,< 4.3
O=C(CCCn1cnc([N+](=O)[O-])n1)Nc1cccc(Cl)c1 [TCMDC-143186],4.3,6,5.9,,,
CC1=C(C(=O)Nc2ccc(Cl)cc2)C(c2ccncc2)n2ncc(C(=O)Nc3ccccc3)c2N1 (centres unmarked) [TCMDC-143187],6.9,< 4.3,< 4.3,< 4.3,< 4.3,< 4.3
Cc1ccc2c(c1)-c1onc(C(=O)N3CCCCC3c3cccnc3)c1CO2 (centres unmarked) [TCMDC-143191],7,4.7,4.4,,,
COc1ccc(-c2cc(C)no2)cc1S(=O)(=O)Nc1ccc(F)c(Cl)c1 [TCMDC-143193],< 4,4.8,4.4,,,
O=C(Nc1ccc(C(=O)N2CCCC2c2ccc3c(c2)OCCCO3)cc1)c1ccco1 (centres unmarked) [TCMDC-143198],4.2,,,,,
CN(Cc1nnnn1C1CCN(Cc2ccc(-n3ccnc3)cc2)CC1)c1ccc(F)cc1F [TCMDC-143321],6.9,,,,,
CN(Cc1ccccc1)Cc1nnnn1C1CCN(Cc2ccc(-n3ccnc3)cc2)CC1 [TCMDC-143322],7.3,,,,,
